# Source: patent publication US10794932B2, “Biosensor for the detection of a biological target, and method for manufacturing the same” (The Governing Council of The University of Toronto, priority 2016, dated 2020)
# Assays:
# TLR5 = TLR5 (Mus musculus, UniProt Q9JLF7); assay: TLR multiplex sensor, EIS film resistance before/after exposure (Example 5), TLR5 sensor; type: binding; settings: exposure 20 minutes
# Experimental: (§1) For each multiplex TLR sensor, 5 separate gold electrodes were used for binding TLR 1 to 5. The 5 modified electrodes/sensors were exposed to the analyte solution and evaluated one by one using potentiostats and electrochemical cells.
# (§2) The preparation of each TLR biosensor was evaluated using EIS. It is understood that cyclic voltammetry as well as electrochemical impedance microscopy can also be used for monitoring the modification. […] Ethanolamine was then applied to deactivate unreacted LPA. Due to dissociation of unspecific absorbed TLR, the Rct dropped slightly. Experimental curves were evaluated using a model to obtain the Rct values, which can be seen at FIG. 9. Measurements from at least triplicated samples prepared were used to obtain statistic information.
# (§3) The TLR1 sensor was exposed to an E. coli K12 whole-cell buffer solution for 20 minutes. The sensor was then removed, washed thoroughly and characterized in the electrochemical cell measuring the Rct again. The difference in Rct before and after exposure is the response triggered by the target. The same protocol was carried out for all remaining TLRs (TLRs 2-5) to obtain one set of pattern for E. coli K12 (FIGS. 10b to 10e). Multiple sets were investigated for statistical relevance. […]
# [1] = test system: Toll-like receptor expressing cells; settings: cited from earlier work
# TLR1 = target: T1, TLR1 (Mus musculus, UniProt Q9EPQ1); assay: TLR multiplex sensor, EIS film resistance before/after exposure (Example 5), TLR1 sensor; type: binding; settings: exposure 20 minutes
# T1 sequence (Q9EPQ1 26-795): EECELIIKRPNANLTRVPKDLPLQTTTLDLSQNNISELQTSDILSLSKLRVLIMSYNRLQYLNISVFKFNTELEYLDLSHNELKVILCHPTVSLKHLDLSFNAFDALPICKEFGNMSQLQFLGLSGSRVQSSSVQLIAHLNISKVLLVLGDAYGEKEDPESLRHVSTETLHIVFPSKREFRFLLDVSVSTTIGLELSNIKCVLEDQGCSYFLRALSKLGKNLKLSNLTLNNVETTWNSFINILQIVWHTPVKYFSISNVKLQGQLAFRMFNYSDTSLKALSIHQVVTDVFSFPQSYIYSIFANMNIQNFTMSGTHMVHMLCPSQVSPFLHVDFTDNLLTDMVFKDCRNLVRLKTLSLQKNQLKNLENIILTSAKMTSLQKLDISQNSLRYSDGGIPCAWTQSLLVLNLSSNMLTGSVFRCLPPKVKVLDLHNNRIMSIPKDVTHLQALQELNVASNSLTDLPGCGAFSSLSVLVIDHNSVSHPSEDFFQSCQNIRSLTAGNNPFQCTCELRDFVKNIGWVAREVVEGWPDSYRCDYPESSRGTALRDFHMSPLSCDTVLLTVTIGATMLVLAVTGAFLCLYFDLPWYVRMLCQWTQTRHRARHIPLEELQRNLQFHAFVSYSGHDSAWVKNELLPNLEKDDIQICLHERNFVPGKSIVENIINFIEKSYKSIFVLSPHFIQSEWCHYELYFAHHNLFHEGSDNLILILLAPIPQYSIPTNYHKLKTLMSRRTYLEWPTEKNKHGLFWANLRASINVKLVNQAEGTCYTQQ
# Experimental: as §1, §2, §3
# Chain of TLR5 (Q9JLF7 27-859): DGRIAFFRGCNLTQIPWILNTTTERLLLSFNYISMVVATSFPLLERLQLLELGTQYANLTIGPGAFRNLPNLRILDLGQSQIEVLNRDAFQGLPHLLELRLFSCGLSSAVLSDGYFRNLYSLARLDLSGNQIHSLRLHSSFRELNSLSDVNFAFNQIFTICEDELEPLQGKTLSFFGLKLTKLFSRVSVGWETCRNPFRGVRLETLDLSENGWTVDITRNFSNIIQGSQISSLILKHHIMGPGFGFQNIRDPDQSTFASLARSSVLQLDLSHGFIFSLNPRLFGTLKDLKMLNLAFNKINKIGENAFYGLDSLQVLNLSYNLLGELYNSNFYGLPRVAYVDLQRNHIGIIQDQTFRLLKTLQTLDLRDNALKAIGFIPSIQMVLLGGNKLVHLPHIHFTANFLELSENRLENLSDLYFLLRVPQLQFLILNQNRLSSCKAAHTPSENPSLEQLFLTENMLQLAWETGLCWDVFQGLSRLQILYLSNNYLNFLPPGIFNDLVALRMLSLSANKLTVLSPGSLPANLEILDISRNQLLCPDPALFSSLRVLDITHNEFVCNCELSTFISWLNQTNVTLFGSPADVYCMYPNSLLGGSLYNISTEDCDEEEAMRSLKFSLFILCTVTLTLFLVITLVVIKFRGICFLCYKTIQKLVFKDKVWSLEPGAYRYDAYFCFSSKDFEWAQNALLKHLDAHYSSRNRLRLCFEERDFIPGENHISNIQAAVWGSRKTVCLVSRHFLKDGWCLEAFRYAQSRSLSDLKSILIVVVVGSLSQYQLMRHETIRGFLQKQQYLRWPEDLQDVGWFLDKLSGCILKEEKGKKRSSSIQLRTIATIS
substance,measurement,setting,value
Pam3CSK4,delta Rct %,TLR5,limited responses
same,detection (lowest level previously reported),[1],2 µg/mL
same,delta Rct %,TLR1,20%
